The values that follow come from publication PMC10385371, “Discovery of Novel Coumarin-Schiff Base Hybrids as Potential Acetylcholinesterase Inhibitors: Design, Synthesis, Enzyme Inhibition, and Computational Studies” (Pharmaceuticals, 2023).

For assay [1], the target named is T1, Acetylcholinesterase (Type VI-S, from Electrophorus electricus) (Electrophorus electricus, UniProt O42275).
T1 construct: purchased Sigma Aldrich Type VI-S (catalogue number not given)
The assay is described as follows: biochemical. The format is biochemical. The settings on record: for IC50: read-out: IC50 against AChE; for potency relative to galantamine (positive control): ratio of AChE IC50 values. How it is done: The procedure described by Ellman, slightly modified, was performed to assess the AChE inhibitory activity of synthesized compounds, according to reported procedures in the literature. Detailed protocol is provided in supplementary materials. […]
In vitro inhibition study on AChE
The assay for AChE inhibitory activity was done based on a modified protocol. Acetylcholinesterase (Type VI-S, from Electrophorus electricus), 5,5′-dithiobis-2-nitrobenzoic acid (Ellman's reagent, DTNB) and acetylthiocholine chloride (ATCI) were purchased from Sigma Aldrich. Enzyme solutions were prepared to give 0.28 units/mL aliquots. Stock solutions were prepared by dissolving 1 mg of tested compounds in 1 mL of DMSO and diluted to a final concentration of 1000, 800, 600, 400, 200, 100, and 50 µg/mL. The assay buffer solution A (pH = 8.0) was prepared by taking 93.2 mL of solution (6 g of sodium dihydrogen phosphate was dissolved in 500 mL of deionized water) and mixed with 6.8 mL of solution (7 g of sodium hydrogen phosphate was dissolved in 500 mL of deionized water) and adjusted. 57.7 mL of sodium dihydrogen phosphate and 42.3 mL of sodium hydrogen phosphate were mixed and adjusted to prepare the buffer B (pH = 7.0). […]
fresh solutions of 0.01 M DTNB (0.396 g of DTNB and 15 mg NaHCO3 were dissolved in 100 mL of the buffer B) in a dark place, and 0.075 M ATCI (0.2048 g of ATCI was dissolved in 10 mL of deionized water), were prepared. In 96-well plates, 20 μL of the test compounds, 10 μL of DTNB, 15 μL of the enzyme (AChE) and 140 μL of the buffer solution A, were added in dark conditions and incubated for 15 min, followed by the addition of ATCI (10 μL) and incubated again for the same period. The activity was measured by reading the absorbance of the solution at 412 nm. Blanks containing all the components except the enzyme were carried out.
IC50 values were calculated as the concentration of a compound that produces 50% enzyme activity inhibition using the GraphPad Prism 8 programme package. Results are expressed as the mean ± SD of at least three different experiments performed in triplicate.
Percentage inhibition was calculated by this formula:
% ሺInhibitionሻ = B−AB X 100
• A= absorbance of the enzyme with the test sample;
• B = absorbance of the enzyme without test sample.
• Each experiment was repeated thrice.

Another assay concerns AChE. The settings on record: read-out: IC50 against AChE; cited from earlier work.
The target of assay [2] is human monoamine oxidase hMAO-B. To be noted: cited from earlier work.
The target of assay [3] is human monoamine oxidase hMAO-A. To be noted: cited from earlier work.

“And” between values parts separate entries of the source, which are not always exact repeats. Equal entries are not always repeated.

T1 sequence (O42275 24-633): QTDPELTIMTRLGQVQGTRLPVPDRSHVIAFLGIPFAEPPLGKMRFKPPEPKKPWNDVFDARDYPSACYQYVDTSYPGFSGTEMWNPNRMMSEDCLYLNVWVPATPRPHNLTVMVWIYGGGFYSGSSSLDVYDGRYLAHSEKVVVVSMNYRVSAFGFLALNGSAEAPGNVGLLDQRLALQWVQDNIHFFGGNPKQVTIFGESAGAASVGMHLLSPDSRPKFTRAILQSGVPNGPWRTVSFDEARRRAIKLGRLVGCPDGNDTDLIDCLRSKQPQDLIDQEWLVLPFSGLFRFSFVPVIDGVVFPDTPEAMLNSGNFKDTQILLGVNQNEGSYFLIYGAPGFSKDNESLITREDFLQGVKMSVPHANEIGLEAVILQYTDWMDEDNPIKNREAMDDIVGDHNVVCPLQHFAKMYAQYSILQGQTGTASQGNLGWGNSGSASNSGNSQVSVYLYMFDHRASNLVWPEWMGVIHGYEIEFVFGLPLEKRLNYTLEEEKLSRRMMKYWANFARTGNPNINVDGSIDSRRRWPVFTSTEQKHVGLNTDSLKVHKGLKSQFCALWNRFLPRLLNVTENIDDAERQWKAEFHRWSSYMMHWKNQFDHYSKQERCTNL

`COc1ccc(/N=C/c2ccc(OCc3cc(=O)oc4cc(OC)ccc34)c(OC)c2)cc1` [13f, (E)-7-Methoxy-4-((2-methoxy-4-(((4-methoxyphenyl)imino)methyl)phenoxy)methyl)-2H-chromen-2-one]: in assay [1], the half-inhibitory concentration (IC50) stood at 365 ± 25 µM. Same read-out and setting: the same measure for `COc1ccc2c(COc3ccc(/C=N/c4ccccc4)cc3OC)cc(=O)oc2c1` [13e, (E)-7-Methoxy-4-((2-methoxy-4-((phenylimino)methyl)phenoxy)methyl)-2H-chromen-2-one]: 297 ± 6 µM; for `COc1ccc(/N=C/c2ccc(OCc3cc(=O)oc4cc(OC)ccc34)cc2)cc1` [13b, (E)-7-Methoxy-4-((4-(((4-methoxyphenyl)imino)methyl)phenoxy)methyl)-2H-chromen-2-one]: 466 ± 7 µM.

On to `Cc1c(O)ccc2c(CC(=O)NCCN3CCN(Cc4ccccc4)CC3)cc(=O)oc12` [compound 3], for which, in the assay with AChE, the IC50 is 0.04 µM. For `COc1ccc2c(COc3cc(/C=N/c4ccc(Cl)cc4)ccc3OC)cc(=O)oc2c1` [13i, (E)-4-((5-(((4-Chlorophenyl)imino)methyl)-2-methoxyphenoxy)methyl)-7-methoxy-2H-chromen-2-one], the IC50 in assay [1] is 712 ± 44 µM. On to `O=c1oc2ccccc2c(O)c1/N=C/c1ccc(O)c(O)c1O` [compound 4], for which the IC50 in assay [2] was 0.711 µM; in assay [3], 0.673 µM. Consider `COc1ccc(/N=C/c2cccc(OCc3cc(=O)oc4cc(OC)ccc34)c2)cc1` [13g, (E)-7-Methoxy-4-((3-(((4-methoxyphenyl)imino)methyl)phenoxy)methyl)-2H-chromen-2-one], for which the IC50 in assay [1] was 1090 ± 58 µM. Consider `COc1ccc2c(COc3ccc(/C=N/c4ccc(Cl)cc4)cc3OC)cc(=O)oc2c1` [13d, (E)-4-((4-(((4-Chlorophenyl)imino)methyl)-2-methoxyphenoxy)methyl)-7-methoxy-2H-chromen-2-one], for which the “potency relative to galantamine (positive control)” value in assay [1] is 5 fold and ~ 5 fold.

For `O=C(N/N=C\c1c2ccccc2cc2ccccc12)c1ccccc1O` [compound 5], the 50% inhibitory concentration (IC50) in the assay with AChE was 4.12 µM. As for `COc1ccc2c(COc3ccc(/C=N/c4ccccc4)cc3)cc(=O)oc2c1` [13a, (E)-7-Methoxy-4-((4-((phenylimino)methyl)phenoxy)methyl)-2H-chromen-2-one], in assay [1], the IC50 amounted to 440 ± 16 µM. Regarding `COc1ccc2c(COc3ccc(/C=N/c4ccc(Cl)cc4)cc3)cc(=O)oc2c1` [13c, (E)-4-((4-(((4-Chlorophenyl)imino)methyl)phenoxy)methyl)-7-methoxy-2H-chromen-2-one], in assay [1], the “potency relative to galantamine (positive control)” value was 5 fold and ~ 5 fold; the IC50 amounted to 232 ± 11 µM.

As for `COc1ccc2c(COc3cccc(/C=N/c4ccc(Cl)cc4)c3)cc(=O)oc2c1` [13j, (E)-4-((3-(((4-Chlorophenyl)imino)methyl)phenoxy)methyl)-7-methoxy-2H-chromen-2-one], the IC50 in assay [1] is 651 ± 3 µM.
